Data taken from patent US20260256702A1, “SUSTAINED ADJUNCT THERAPY TO IMPROVE CHEMOTHERAPY EFFICACY IN GLIOBLASTOMA IN A CEREBROVASCULA TUMOR-ON-A-CHIP MODEL” (Ohio State Innovation Foundation, priority 2022, published 2026).

System: human umbilical vein endothelial cells (HUVECs)
Assay: Capillary tubule formation assay
Type: cell-based
From the text: We have developed a novel process that combines electrospinning, sintering, and salt leaching to create tunable capsules for long-term controlled release of a compound. The capsules enable high levels of therapeutic loading with preserved bioactivity due to the hollow core that is loaded post-processing without the typical loss seen during encapsulation procedures. The polymers in the device are biocompatible, biodegradable, and used for applications in drug delivery. Chitosan, a positively charged biopolymer was selected for the inner layer of the capsule to electrostatically interact with negatively charged proteins, peptides, and antibodies (e.g. anti-VEGF, αCT11) to slow release. Poly(caprolactone) (PCL) was selected for the outer layer of the device due to its hydrophobicity that slows hydrolytic degradation. Capsule inner diameters ranged from 0.26-1.7 mm, with average wall thickness of 90 μm. Scanning electron microscopy (SEM) was used to measure capsule dimensions and pore size (FIG. 5A). No pores were present after sintering when prepared without salts. Pore size increased from 237±97 nm to 609±274 nm for 1% to 10% salt concentrations, and elution was increased at >5% salt concentration due to pore interconnectivity. In preliminary studies, in vitro release of model protein BSA and anti-VEGF (bevacizumab) were evaluated. […]

bevacizumab: anti-VEGF (149 kDa), released from capsules
tubule formation (VEGF 5 ng/ml, 10 μg/ml bevacizumab released from capsules at time points out to 9 months): tubule formation was inhibited | tubule size versus fresh anti-VEGF control (anti-VEGF released after 9 months, 5 ng VEGF): no significant difference in tubule size
